According to ChEMBL document CHEMBL4229455, “Synthesis and anticancer activity of novel bisindolylhydroxymaleimide derivatives with potent GSK-3 kinase inhibition” (Bioorg Med Chem, 2018):

How the values were obtained:
[1] = biological target: Cyclin-dependent kinase 5/CDK5 activator 1 (Homo sapiens, UniProt Q00535); test: Inhibition of recombinant full length human CDK5/p25 expressed in bacteria using histone H1 as substrate in presence of [gamma-33P]ATP
CDK2/Cyclin A2 = CDK2/Cyclin A2 (Homo sapiens, UniProt P24941); test: Inhibition of full length human CDK2/cyclin A using histone H1 as substrate in presence of [gamma-33P]ATP; format: protein-complex assay
U-251 = test: Cytotoxicity against human U251 cells assessed as cell growth at 10 uM after 48 hrs by SRB assay relative to control; format: functional; conditions: U-251, 48 h, read-out: Activity
SK-OV-3 = test: Cytotoxicity against human SKOV3 cells assessed as cell growth at 10 uM after 48 hrs by SRB assay relative to control; format: functional; conditions: SK-OV-3, 48 h, read-out: Activity
NCI-H23 = test: Cytotoxicity against human NCI-H23 cells assessed as cell growth at 10 uM after 48 hrs by SRB assay relative to control; format: functional; conditions: NCI-H23, 48 h, read-out: Activity
[2] = Inhibition of domestic porcine brain full length […] using RRKHAAIGSpAYSITA as substrate in presence of [gamma-33P]ATP; set-up: species or system Sus scrofa domesticus
MCF7 = test: Cytotoxicity against human MCF7 cells assessed as cell growth at 10 uM after 48 hrs by SRB assay relative to control; format: functional; conditions: MCF7, 48 h, read-out: Activity
K562 = test: Cytotoxicity against human K562 cells assessed as cell growth at 10 uM after 48 hrs by SRB assay relative to control; format: functional; conditions: K562, 48 h, read-out: Activity
[3] = biological target: Dual specificity tyrosine-phosphorylation-regulated kinase 1A (Rattus norvegicus, UniProt Q63470); test: Inhibition of recombinant rat DYRK1A kinase domain expressed in bacteria using KKISGRLSPIMTEQ as substrate in presence of [gamma-33P]ATP
UO-31 = test: Cytotoxicity against human UO31 cells assessed as cell growth at 10 uM after 48 hrs by SRB assay relative to control; format: functional; conditions: UO-31, 48 h, read-out: Activity
NCI-H460 = test: Cytotoxicity against human NCI-H460 cells assessed as cell growth at 10 uM after 48 hrs by SRB assay relative to control; format: functional; conditions: NCI-H460, 48 h, read-out: Activity
SF-539 = test: Cytotoxicity against human SF539 cells assessed as cell growth at 10 uM after 48 hrs by SRB assay relative to control; format: functional; conditions: SF-539, 48 h, read-out: Activity
HL-60(TB) = test: Cytotoxicity against human HL-60(TB) cells assessed as cell growth at 10 uM after 48 hrs by SRB assay relative to control; format: functional; conditions: HL-60, 48 h, read-out: Activity
CCRF-CEM = test: Cytotoxicity against human CCRF-CEM cells assessed as cell growth at 10 uM after 48 hrs by SRB assay relative to control; format: functional; conditions: read-out: Activity
TK-10 = test: Cytotoxicity against human TK10 cells assessed as cell growth at 10 uM after 48 hrs by SRB assay relative to control; format: functional; conditions: TK-10, 48 h, read-out: Activity
SK-MEL-28 = test: Cytotoxicity against human SK-MEL-28 cells assessed as cell growth at 10 uM after 48 hrs by SRB assay relative to control; format: functional; conditions: SK-MEL-28, 48 h, read-out: Activity
[4] = biological target: Glycogen synthase kinase-3 (Sus scrofa, UniProt B2LUN4+I6LNT8); test: Inhibition of domestic porcine brain full length GSK-3alpha/beta using GS-1 as substrate in presence of [gamma-33P]ATP; set-up: species or system Sus scrofa domesticus
Aurora kinase B [5] = biological target: T1, Aurora kinase B (Homo sapiens, UniProt Q96GD4); test: Inhibition of recombinant full length human aurora B expressed in baculovirus infected Sf9 insect cells using MBP as substrate in presence of [gamma-33P]ATP
T1 sequence (Q96GD4 whole entry): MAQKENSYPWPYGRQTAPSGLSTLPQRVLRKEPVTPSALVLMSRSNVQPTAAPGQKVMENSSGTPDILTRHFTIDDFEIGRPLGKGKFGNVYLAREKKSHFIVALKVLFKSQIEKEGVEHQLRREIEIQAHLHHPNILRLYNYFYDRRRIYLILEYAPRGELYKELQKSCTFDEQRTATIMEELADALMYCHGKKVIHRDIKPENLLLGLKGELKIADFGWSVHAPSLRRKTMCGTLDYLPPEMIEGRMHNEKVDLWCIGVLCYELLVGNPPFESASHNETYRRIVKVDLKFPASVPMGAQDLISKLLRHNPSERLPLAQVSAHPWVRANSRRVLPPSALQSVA

[6] = biological target: Serine/threonine-protein kinase pim-1 (Homo sapiens, UniProt P11309); test: Inhibition of recombinant full length human PIM1 expressed in bacteria assessed as residual activity at 10 uM using histone H1 as substrate in presence of [gamma-33P]ATP
Serine/threonine-protein kinase pim-1, sequence (P11309 whole entry, looked up): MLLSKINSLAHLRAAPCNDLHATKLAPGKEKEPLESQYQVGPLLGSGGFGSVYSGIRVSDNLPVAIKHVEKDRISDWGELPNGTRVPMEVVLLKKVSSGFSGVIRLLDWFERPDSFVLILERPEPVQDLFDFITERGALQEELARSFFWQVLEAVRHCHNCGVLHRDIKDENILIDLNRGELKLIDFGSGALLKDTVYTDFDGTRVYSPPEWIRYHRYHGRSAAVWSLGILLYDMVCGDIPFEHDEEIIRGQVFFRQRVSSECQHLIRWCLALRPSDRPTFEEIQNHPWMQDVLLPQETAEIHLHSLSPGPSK

DU-145 = test: Cytotoxicity against human DU145 cells assessed as cell growth at 10 uM after 48 hrs by SRB assay relative to control; format: functional; conditions: DU-145, 48 h, read-out: Activity
Sus scrofa domesticus = species on record: Sus scrofa domesticus; test: Inhibition of domestic porcine brain full length […] assessed as residual activity at 10 uM using RRKHAAIGSpAYSITA as substrate in presence of [gamma-33P]ATP
ACHN = test: Cytotoxicity against human ACHN cells assessed as cell growth at 10 uM after 48 hrs by SRB assay relative to control; format: functional; conditions: read-out: Activity
OVCAR-8 = test: Cytotoxicity against human OVCAR8 cells assessed as cell growth at 10 uM after 48 hrs by SRB assay relative to control; format: functional; conditions: OVCAR-8, 48 h, read-out: Activity
HT-29 = test: Cytotoxicity against human HT-29 cells assessed as cell growth at 10 uM after 48 hrs by SRB assay relative to control; format: functional; conditions: HT-29, 48 h, read-out: Activity
[7] = biological target: Receptor-interacting serine/threonine-protein kinase 3 (Homo sapiens, UniProt Q9Y572); test: Inhibition of recombinant full length human RIPK3 expressed in baculovirus infected Sf9 insect cells assessed as residual activity at 10 uM using MBP as substrate in presence of [gamma-33P]ATP
Receptor-interacting serine/threonine-protein kinase 3, sequence (Q9Y572 whole entry, looked up): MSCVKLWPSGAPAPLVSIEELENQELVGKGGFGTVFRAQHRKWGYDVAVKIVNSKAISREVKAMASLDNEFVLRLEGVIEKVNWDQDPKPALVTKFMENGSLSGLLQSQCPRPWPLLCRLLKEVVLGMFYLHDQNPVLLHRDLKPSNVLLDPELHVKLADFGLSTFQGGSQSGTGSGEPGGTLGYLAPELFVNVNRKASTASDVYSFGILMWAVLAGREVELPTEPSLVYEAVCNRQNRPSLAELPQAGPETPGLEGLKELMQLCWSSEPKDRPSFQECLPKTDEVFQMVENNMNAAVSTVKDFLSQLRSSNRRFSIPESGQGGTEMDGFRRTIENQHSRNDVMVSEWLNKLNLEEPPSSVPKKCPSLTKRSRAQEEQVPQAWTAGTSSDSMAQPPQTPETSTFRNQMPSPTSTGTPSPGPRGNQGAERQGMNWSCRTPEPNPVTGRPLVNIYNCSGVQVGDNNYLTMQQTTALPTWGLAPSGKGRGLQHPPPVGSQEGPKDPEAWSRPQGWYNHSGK

A498 = test: Cytotoxicity against human A498 cells assessed as cell growth at 10 uM after 48 hrs by SRB assay relative to control; format: functional; conditions: A498, 48 h, read-out: Activity
Aurora kinase B [8] = biological target: T1, Aurora kinase B; test: Inhibition of recombinant full length human aurora B expressed in baculovirus infected Sf9 insect cells assessed as residual activity at 10 uM using MBP as substrate in presence of [gamma-33P]ATP
NCI/ADR-RES = test: Cytotoxicity against human NCI-ADR-RES cells assessed as cell growth at 10 uM after 48 hrs by SRB assay relative to control; format: functional; conditions: read-out: Activity
NCI-H322M = test: Cytotoxicity against human NCI-H322M cells assessed as cell growth at 10 uM after 48 hrs by SRB assay relative to control; format: functional; conditions: read-out: Activity
[9] = biological target: CDK9/cyclin T1 (Homo sapiens) (UniProt O60563+P50750); test: Inhibition of recombinant full length human CDK9/cyclin T expressed in baculovirus infected Sf9 insect cells assessed as residual activity at 10 uM using YSPTSPSYSPTSPSYSPTSPSKKKK as substrate in presence of [gamma-33P]ATP
SN12C = test: Cytotoxicity against human SN12C cells assessed as cell growth at 10 uM after 48 hrs by SRB assay relative to control; format: functional; conditions: read-out: Activity
COLO 205 = test: Cytotoxicity against human COLO205 cells assessed as cell growth at 10 uM after 48 hrs by SRB assay relative to control; format: functional; conditions: COLO 205, 48 h, read-out: Activity
RXF 393 = test: Cytotoxicity against human RXF393 cells assessed as cell growth at 10 uM after 48 hrs by SRB assay relative to control; format: functional; conditions: RXF 393, 48 h, read-out: Activity

Cyclin-dependent kinase 5/CDK5 activator 1, sequence (Q00535 whole entry): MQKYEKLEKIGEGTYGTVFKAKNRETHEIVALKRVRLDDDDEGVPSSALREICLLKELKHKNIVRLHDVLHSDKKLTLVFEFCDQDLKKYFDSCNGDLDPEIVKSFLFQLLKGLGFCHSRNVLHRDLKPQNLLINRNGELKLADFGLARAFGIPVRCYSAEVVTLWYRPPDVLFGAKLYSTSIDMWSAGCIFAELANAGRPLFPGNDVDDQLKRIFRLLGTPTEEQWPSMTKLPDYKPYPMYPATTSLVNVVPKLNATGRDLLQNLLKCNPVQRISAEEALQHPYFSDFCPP
Cyclin-dependent kinase 5/CDK5 activator 1, sequence (Q15078 whole entry, further chain): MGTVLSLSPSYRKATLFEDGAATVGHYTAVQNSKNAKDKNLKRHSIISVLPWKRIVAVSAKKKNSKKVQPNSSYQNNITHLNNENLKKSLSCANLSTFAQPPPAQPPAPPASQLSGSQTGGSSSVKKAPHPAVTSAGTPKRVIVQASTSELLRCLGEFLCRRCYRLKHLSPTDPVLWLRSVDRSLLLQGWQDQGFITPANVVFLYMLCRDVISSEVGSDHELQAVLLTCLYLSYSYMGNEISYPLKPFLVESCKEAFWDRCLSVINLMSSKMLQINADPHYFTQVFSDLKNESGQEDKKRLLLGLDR

| SMILES | IC50 [1] [µM] | IC50 (CDK2/Cyclin A2) [µM] | growth at 10 µM (U-251) [%] | growth at 10 µM (SK-OV-3) [%] | growth at 10 µM (NCI-H23) [%] | IC50 [2] [µM] | growth at 10 µM (MCF7) [%] | growth at 10 µM (K562) [%] | IC50 [3] [µM] | growth at 10 µM (UO-31) [%] | growth at 10 µM (NCI-H460) [%] | growth at 10 µM (SF-539) [%] | growth at 10 µM (HL-60(TB)) [%] | growth at 10 µM (CCRF-CEM) [%] | growth at 10 µM (TK-10) [%] | growth at 10 µM (SK-MEL-28) [%] | IC50 [4] [µM] | IC50 (Aurora kinase B [5]) [µM] | Activity [6] [%] | growth at 10 µM (DU-145) [%] | further results |
| --- | --- | --- | --- | --- | --- | --- | --- | --- | --- | --- | --- | --- | --- | --- | --- | --- | --- | --- | --- | --- | --- |
| CC(C)n1cc(C2=C(c3c[nH]c4ccccc34)C(=O)N(O)C2=O)c2ccccc21 | > 10 | > 10 | 100 | 102 | 88.2 | > 10 | 77.1 | 86.3 | > 10 | 67.9 | 95.3 | 97.3 | 82.6 | 95.8 | 84.5 | 116 | 1.5 | > 10 | 24 | 107 | Activity (Sus scrofa domesticus): 72%; growth at 10 µM (ACHN): 99.6%; growth at 10 µM (OVCAR-8): 107%; growth at 10 µM (HT-29): 99.2%; Activity [7]: 97%; growth at 10 µM (A498): 93.5%; Activity (Aurora kinase B [8]): 147%; growth at 10 µM (NCI/ADR-RES): 102%; growth at 10 µM (NCI-H322M): 103%; Activity [9]: 44%; growth at 10 µM (SN12C): 101%; growth at 10 µM (COLO 205): 98.5%; growth at 10 µM (RXF 393): 100% |
| O=C(O)CCCCCn1cc(C2=C(c3c[nH]c4ccccc34)C(=O)N(O)C2=O)c2ccccc21 | > 10 | > 10 | 102 | 81 | 97.6 | > 10 | 102 | 94.8 | 2 | 61 | 103 | 96.3 | 108 | 96.2 | 99 | 111 | 0.75 | > 10 | 53 | 104 | Activity (Sus scrofa domesticus): 83%; growth at 10 µM (ACHN): 97.5%; growth at 10 µM (OVCAR-8): 99.4%; growth at 10 µM (HT-29): 101%; Activity [7]: 100%; growth at 10 µM (A498): 88.5%; Activity (Aurora kinase B [8]): 63%; growth at 10 µM (NCI/ADR-RES): 106%; growth at 10 µM (NCI-H322M): 101%; Activity [9]: 19%; growth at 10 µM (SN12C): 105%; growth at 10 µM (COLO 205): 102%; growth at 10 µM (RXF 393): 101% |
| O=C1C2=C(C(=O)N1O)c1cn(c3ccccc13)CCCCCCn1cc2c2ccccc21 | > 10 | > 10 | 106 | 106 | 99.7 | > 10 | 99.6 | 109 | > 10 | 80.3 | 100 | 95.7 | 105 | 99.4 | 105 | 108 | > 10 | > 10 | 68 | 108 | Activity (Sus scrofa domesticus): 103%; growth at 10 µM (ACHN): 109%; growth at 10 µM (OVCAR-8): 110%; growth at 10 µM (HT-29): 121%; Activity [7]: 108%; growth at 10 µM (A498): 88.3%; Activity (Aurora kinase B [8]): 97%; growth at 10 µM (NCI/ADR-RES): 108%; growth at 10 µM (NCI-H322M): 108%; Activity [9]: 87%; growth at 10 µM (SN12C): 106%; growth at 10 µM (COLO 205): 110%; growth at 10 µM (RXF 393): 119% |
| Cn1cc(C2=C(c3cn(CCCCCC(=O)O)c4ccccc34)C(=O)N(O)C2=O)c2ccccc21 | > 10 | 4 | 102 | 99.8 | 95.2 | > 10 | 90 | 103 | 1 | 63.2 | 108 | 98.9 | 103 | 84.4 | 107 | 106 | 3.2 | > 10 | 64 | 109 | Activity (Sus scrofa domesticus): 80%; growth at 10 µM (ACHN): 92.9%; growth at 10 µM (OVCAR-8): 87.7%; growth at 10 µM (HT-29): 105%; Activity [7]: 106%; growth at 10 µM (A498): 91.9%; Activity (Aurora kinase B [8]): 71%; growth at 10 µM (NCI/ADR-RES): 100%; growth at 10 µM (NCI-H322M): 99.8%; Activity [9]: 15%; growth at 10 µM (SN12C): 95.2%; growth at 10 µM (COLO 205): 109%; growth at 10 µM (RXF 393): 111% |
| Cn1cc(C2=C(c3c[nH]c4ccccc34)C(=O)N(O)C2=O)c2ccccc21 | > 10 | > 10 | 98.5 | 92.1 | 76.9 | > 10 | 30.9 | 50.2 | > 10 | 40.5 | 87.4 | 95.5 | 72.8 | 82.2 | 120 | 92 | 0.2 | > 10 | 8 | 100 | Activity (Sus scrofa domesticus): 40%; growth at 10 µM (ACHN): 77.9%; growth at 10 µM (OVCAR-8): 95.6%; growth at 10 µM (HT-29): 81.5%; Activity [7]: 100%; growth at 10 µM (A498): 79.1%; Activity (Aurora kinase B [8]): 79%; growth at 10 µM (NCI/ADR-RES): 89.5%; growth at 10 µM (NCI-H322M): 81.9%; Activity [9]: 19%; growth at 10 µM (SN12C): 97.8%; growth at 10 µM (COLO 205): 86%; growth at 10 µM (RXF 393): 86.3% |
